Laboratory results as given in patent US12139487B2, “Compounds and uses thereof” (Foghorn Therapeutics Inc., priority 2022, dated 2024).

Experiments:
BRM = target: T1, BRM (Homo sapiens, UniProt P51531); assay: ATPase catalytic activity assay (ADP-Glo), BRM; format: biochemical; settings: Table 10; for Ratio (BRG1 IC50 (μM) divided by BRM IC50 (μM)): ATPase assay, selectivity BRG1/BRM; for IC50: ATPase catalytic activity assay (ADP-Glo)
T1 construct: made in house; host or cells: High Five insect cells
Summary of the method: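 ADP-Glo luminescence measures ADP produced by BRM ATPase (30 nM) during 1 h at room temperature. ATP is 400 μM, with 20 nM salmon sperm DNA as cofactor. Buffer: 20 mM Tris pH 8, 20 mM MgCl2, 50 mM NaCl, 0.1% Tween-20, 1 mM DTT.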

BRG-1 = target: T2, BRG-1 (Homo sapiens, UniProt P51532); assay: ATPase catalytic activity assay (ADP-Glo), BRG-1; format: biochemical; settings: Table 10, read-out: BRG1 IC50
T2 construct: made in house; host or cells: High Five insect cells
Summary of the method: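 ADP produced by BRG-1 was quantified by luciferase luminescence. A 60 min room-temperature ADP-to-ATP conversion followed a 40 min ATP-depletion step.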

T1 sequence (P51531 whole entry): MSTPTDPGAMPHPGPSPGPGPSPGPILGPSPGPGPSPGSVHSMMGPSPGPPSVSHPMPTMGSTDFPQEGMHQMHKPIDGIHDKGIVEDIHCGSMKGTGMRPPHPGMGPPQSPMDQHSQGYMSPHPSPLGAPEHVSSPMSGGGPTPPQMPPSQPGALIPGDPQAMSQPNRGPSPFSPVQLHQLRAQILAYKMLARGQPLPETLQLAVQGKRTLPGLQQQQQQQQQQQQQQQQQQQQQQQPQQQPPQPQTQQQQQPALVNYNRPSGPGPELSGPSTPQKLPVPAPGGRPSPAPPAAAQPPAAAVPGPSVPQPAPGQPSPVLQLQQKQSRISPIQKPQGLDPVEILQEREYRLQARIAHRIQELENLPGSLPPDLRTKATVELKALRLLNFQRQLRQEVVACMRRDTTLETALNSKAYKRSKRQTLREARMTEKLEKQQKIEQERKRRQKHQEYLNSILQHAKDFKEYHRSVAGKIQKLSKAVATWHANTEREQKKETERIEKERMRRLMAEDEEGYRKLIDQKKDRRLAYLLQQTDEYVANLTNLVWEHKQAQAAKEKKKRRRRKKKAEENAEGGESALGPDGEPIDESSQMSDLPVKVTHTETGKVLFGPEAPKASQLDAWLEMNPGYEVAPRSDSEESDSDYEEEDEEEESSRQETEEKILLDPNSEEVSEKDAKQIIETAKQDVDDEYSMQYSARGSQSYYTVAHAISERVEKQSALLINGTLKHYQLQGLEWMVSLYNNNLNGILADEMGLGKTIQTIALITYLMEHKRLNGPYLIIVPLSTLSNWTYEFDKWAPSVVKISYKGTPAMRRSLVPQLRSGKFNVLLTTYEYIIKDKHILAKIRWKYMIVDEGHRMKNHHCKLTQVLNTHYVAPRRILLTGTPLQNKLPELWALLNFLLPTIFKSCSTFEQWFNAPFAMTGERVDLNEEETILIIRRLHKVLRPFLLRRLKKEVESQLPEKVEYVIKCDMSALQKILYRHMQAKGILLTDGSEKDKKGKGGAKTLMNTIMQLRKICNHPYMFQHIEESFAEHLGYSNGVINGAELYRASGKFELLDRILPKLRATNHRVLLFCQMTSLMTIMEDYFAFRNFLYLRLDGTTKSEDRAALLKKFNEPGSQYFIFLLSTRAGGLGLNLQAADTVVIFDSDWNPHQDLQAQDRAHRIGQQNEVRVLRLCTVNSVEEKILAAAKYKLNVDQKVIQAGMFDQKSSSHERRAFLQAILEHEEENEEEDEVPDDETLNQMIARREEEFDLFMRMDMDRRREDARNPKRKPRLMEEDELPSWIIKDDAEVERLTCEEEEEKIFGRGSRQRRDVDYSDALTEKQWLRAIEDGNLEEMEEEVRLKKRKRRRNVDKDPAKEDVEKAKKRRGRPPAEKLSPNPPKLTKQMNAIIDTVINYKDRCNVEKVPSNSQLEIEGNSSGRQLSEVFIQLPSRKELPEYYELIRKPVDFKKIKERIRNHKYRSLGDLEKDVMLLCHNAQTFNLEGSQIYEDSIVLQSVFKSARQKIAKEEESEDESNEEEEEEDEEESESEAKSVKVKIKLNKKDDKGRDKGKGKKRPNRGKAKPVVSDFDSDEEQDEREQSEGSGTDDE
T2 sequence (P51532 whole entry): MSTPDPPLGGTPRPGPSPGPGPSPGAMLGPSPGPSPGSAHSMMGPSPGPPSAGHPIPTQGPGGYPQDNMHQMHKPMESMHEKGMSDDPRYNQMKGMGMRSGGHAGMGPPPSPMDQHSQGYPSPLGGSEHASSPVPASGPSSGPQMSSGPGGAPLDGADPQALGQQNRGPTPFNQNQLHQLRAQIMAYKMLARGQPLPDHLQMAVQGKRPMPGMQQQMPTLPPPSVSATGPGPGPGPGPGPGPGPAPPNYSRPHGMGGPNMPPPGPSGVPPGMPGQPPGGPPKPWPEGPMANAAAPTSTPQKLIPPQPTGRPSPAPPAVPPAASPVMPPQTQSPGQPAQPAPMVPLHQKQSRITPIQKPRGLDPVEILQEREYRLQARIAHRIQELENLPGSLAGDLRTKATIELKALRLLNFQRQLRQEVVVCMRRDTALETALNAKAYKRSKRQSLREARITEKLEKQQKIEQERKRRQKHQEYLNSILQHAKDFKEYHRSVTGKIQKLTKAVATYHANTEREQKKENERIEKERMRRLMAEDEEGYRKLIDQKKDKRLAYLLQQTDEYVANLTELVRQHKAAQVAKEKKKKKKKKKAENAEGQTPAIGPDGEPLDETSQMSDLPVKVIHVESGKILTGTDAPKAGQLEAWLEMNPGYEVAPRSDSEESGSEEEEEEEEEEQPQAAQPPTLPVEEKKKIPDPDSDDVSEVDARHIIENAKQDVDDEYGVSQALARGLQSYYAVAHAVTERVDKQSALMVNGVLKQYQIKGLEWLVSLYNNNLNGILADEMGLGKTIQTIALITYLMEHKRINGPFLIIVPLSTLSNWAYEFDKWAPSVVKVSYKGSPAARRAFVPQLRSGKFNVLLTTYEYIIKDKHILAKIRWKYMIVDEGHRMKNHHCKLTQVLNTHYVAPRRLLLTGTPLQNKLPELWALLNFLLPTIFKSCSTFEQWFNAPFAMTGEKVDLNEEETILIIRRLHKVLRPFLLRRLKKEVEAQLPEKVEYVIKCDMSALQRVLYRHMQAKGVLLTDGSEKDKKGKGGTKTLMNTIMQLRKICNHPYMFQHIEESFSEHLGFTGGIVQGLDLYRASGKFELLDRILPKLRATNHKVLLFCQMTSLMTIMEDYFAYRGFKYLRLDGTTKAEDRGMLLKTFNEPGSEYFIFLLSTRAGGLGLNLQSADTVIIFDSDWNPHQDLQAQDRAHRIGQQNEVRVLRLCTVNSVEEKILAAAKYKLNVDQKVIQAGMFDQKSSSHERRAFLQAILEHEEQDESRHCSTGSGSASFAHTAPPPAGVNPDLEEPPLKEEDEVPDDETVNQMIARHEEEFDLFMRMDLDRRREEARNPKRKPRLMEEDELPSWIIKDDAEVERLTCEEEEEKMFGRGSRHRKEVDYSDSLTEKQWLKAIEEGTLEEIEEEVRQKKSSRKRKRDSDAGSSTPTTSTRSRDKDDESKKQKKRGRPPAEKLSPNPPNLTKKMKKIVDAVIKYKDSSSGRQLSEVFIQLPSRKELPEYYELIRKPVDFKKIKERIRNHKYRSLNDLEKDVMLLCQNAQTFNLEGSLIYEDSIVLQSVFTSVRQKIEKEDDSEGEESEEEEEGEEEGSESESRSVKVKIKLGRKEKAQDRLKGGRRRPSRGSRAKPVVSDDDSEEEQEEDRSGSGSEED

Structure (SMILES) | Ratio (BRG1 IC50 (μM) divided by BRM IC50 (μM)) (BRM) | IC50 (BRM) [nM] | IC50 (BRG-1) [nM]
[2H]C1([2H])Oc2c(F)cc(C(=O)NCc3cc4nc(-c5ccc(C(F)F)nc5OC)ccc4cn3)cc2S(=O)(=O)[C@@]([2H])(F)C1([2H])[2H] [Compound 84] | 25.97 | 3.1 | 95.7
COc1ccc(-c2ccc3cnc(CNC(=O)c4cc(F)c5c(c4)S(=O)(=O)[C@@H](F)CCO5)cc3n2)nc1[C@@H]1CC1(F)F [Compound 144] | 25.02 | 4.8 | 109
O=C(NCc1cc2nc(N3CCOc4ccc(C5CC5)nc43)ccc2cn1)c1ccc2c(c1)S(=O)(=O)[C@@H](F)CCO2 [Compound 96] | 22.86 | 3.4 | 86.4
COc1nc([C@@H](C)C(F)F)ccc1-c1ccc2cnc(CNC(=O)c3cc(F)c4c(c3)S(=O)(=O)[C@@H](F)CCO4)cc2n1 [Compound 328] | 29.97 | 24.1 | 723
COc1nc(C(C)(F)F)ccc1-c1ccc2cnc(CNC(=O)c3cc(F)c4c(c3)S(=O)(=O)[C@@H](F)CCO4)cc2n1 [Compound 150] | 21.42 | 4.9 | 119
CCCc1ccnc2c1OCCN2c1ccc2cnc(CNC(=O)c3cc(F)c4c(c3)S(=O)(=O)[C@@H](F)CCO4)cc2n1 [Compound 194] | 11.72 | 5.9 | 69.2
C[C@@H](F)c1cnc2c(c1)OCCN2c1ccc2cnc(CNC(=O)c3cc(F)c4c(c3)S(=O)(=O)[C@@H](F)CCO4)cc2n1 [Compound 274] | 22.22 | 8.9 | 192
[2H]C1([2H])Oc2c(F)cc(C(=O)NCc3cc4nc(N5CCOc6ccc(C(F)F)nc65)ccc4cn3)cc2S(=O)(=O)[C@@]([2H])(F)C1([2H])[2H] [Compound 203] | 14.89 | 6.1 | 92
O=C(NCc1cc2nc(N3CCOc4ccc(C5CC5)nc43)ccc2cn1)c1cc(F)c2c(c1)S(=O)(=O)[C@@H](F)CCO2 [Compound 55] | 35.69 | 2.5 | 124
C[C@@H]1CN(c2cccc(-c3ccc4cnc(CNC(=O)c5cc(F)c6c(c5)S(=O)(=O)[C@@H](F)CO6)cc4n3)n2)C[C@H](C)O1 [Compound 326] | 28.75 | 122 | 3510
C[C@@H]1CN(c2cccc(-c3ccc4cnc(CNC(=O)c5cc(F)c6c(c5)S(=O)(=O)[C@H](F)CCCO6)cc4n3)n2)C[C@H](C)O1 [Compound 5] | 9.64 | 1.1 | 10.9
COc1nc(C(F)F)ccc1-c1ccc2cnc(CNC(=O)c3cc(F)c4c(c3)S(=O)(=O)[C@@H](F)COC4)cc2c1 [Compound 137] | 21.45 | 4.7 | 99.7
O=C(NCc1cc2nc(N3CCOc4ccc([C@H]5C[C@@H]5F)nc43)ccc2cn1)c1cc(F)c2c(c1)S(=O)(=O)[C@@H](F)CCO2 [Compound 164] | 32.00 | 5.2 | 172
O=C(NCc1cc2nc(-c3ccnc(N4CCC4)n3)ccc2cn1)c1cc(F)c2c(c1)S(=O)(=O)[C@@H](F)COC2 [Compound 228] | 14.53 | 7.1 | 108
CO[C@H]1CN(c2cccc(-c3ccc4cnc(CNC(=O)c5cc(F)c6c(c5)S(=O)(=O)[C@@H](F)CCO6)cc4n3)n2)C[C@@H]1F [Compound 97] | 17.66 | 3.4 | 65.7
COc1nc([C@@H](F)C(F)F)ccc1-c1ccc2cnc(CNC(=O)c3cc(F)c4c(c3)S(=O)(=O)[C@@H](F)CCO4)cc2n1 [Compound 298] | 14.40 | 9.9 | 143
CN(C)c1ccnc2c1OCCN2c1ccc2cnc(CNC(=O)c3cc(F)c4c(c3)S(=O)(=O)[C@@H](F)CCO4)cc2n1 [Compound 296] | 11.58 | 9.9 | 114
C[C@@H]1CN(c2cccc(-c3ccc4cnc(CNC(=O)c5ccc6c(c5)S(=O)(=O)[C@@H](F)CN(C)C6)cc4n3)n2)C[C@H](C)O1 (single isomer, unassigned) [Compound 317] | 7.78 | 227 | 1760
Cc1cnc2c(c1)OCCN2c1ccc2cnc(CNC(=O)c3cc(F)c4c(c3)S(=O)(=O)[C@@H](F)CCO4)cc2n1 [Compound 51] | 18.72 | 2.5 | 42.1
